pIC50: −log10 of the molar value. ≈ marks a conversion by molar mass, not a printed value. Where “and” joins values, the source holds several entries; their conditions need not be identical. Identical values can stand only once.
How the values were obtained:
[1] = system: Mycobacterium tuberculosis; experiment: Antimycobacterial activity against Mycobacterium tuberculosis H37Rv assessed as reduction in bacterial growth; type: functional
[2] = system: Mycobacterium tuberculosis; experiment: Antimycobacterial activity against Mycobacterium tuberculosis H37Ra assessed as reduction in bacterial growth; type: functional
[3] = system: Mycobacterium tuberculosis; experiment: Antimycobacterial activity against Mycobacterium tuberculosis H37Rv assessed as reduction in bacterial growth by BACTEC MGIT method; type: functional
[4] = system: Mycobacterium tuberculosis; experiment: Antimycobacterial activity against Mycobacterium tuberculosis H37Rv assessed as reduction in bacterial growth by agar dilution method; type: functional
[5] = system: Mycobacterium tuberculosis; experiment: Antimycobacterial activity against Mycobacterium tuberculosis H37Rv assessed as reduction in bacterial growth by MABA assay; type: functional
[6] = system: Mycobacterium tuberculosis; experiment: Antimycobacterial activity against Mycobacterium tuberculosis H37Rv ATCC 27294 assessed as reduction in bacterial growth by MABA analysis; type: functional
[7] = system: Mycobacterium tuberculosis; experiment: Antimycobacterial activity against Mycobacterium tuberculosis H37Rv assessed as reduction in bacterial growth incubated for 21 days by broth dilution assay; type: functional; conditions: 504 h, time 21 day
[8] = system: Mycobacterium tuberculosis; experiment: Antimycobacterial activity against Mycobacterium tuberculosis H37Rv ATCC 27294 assessed as reduction in bacterial growth incubated for 72 hrs by two-fold dilution method; type: functional
[9] = target: T1, Enoyl-[acyl-carrier-protein] reductase [NADH] (Mycobacterium tuberculosis, UniProt P9WGR1); experiment: Inhibition of Mycobacterium tuberculosis InhA using octenoyl-CoA as substrate in presence of NADH and measured for 10 mins by colorimetric assay
T1 sequence (P9WGR1 whole entry): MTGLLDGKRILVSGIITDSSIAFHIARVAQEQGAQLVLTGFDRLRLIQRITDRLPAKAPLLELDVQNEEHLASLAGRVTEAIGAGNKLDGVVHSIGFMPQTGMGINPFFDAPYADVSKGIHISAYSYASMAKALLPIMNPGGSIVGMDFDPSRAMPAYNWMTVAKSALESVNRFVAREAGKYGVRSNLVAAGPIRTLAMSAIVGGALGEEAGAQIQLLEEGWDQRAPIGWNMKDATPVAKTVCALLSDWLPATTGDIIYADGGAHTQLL

[10] = system: Mycobacterium tuberculosis; experiment: Antimycobacterial activity against Mycobacterium tuberculosis H37Rv ATCC 27294 assessed as reduction in bacterial growth incubated for 7 days by MABA analysis; type: functional; conditions: H37Rv ATCC 27294, 168 h, time 7 day
[11] = system: Mycobacterium tuberculosis; experiment: Antimycobacterial activity against Mycobacterium tuberculosis H37Rv assessed as reduction in bacterial growth incubated for 15 days by turbidometric method; type: functional; conditions: 360 h, time 15 day
[12] = system: Mycobacterium tuberculosis; experiment: Antimycobacterial activity against Mycobacterium tuberculosis H37Rv assessed as reduction in bacterial growth by MABA analysis; type: functional
[13] = system: Mycobacterium tuberculosis; experiment: Antimycobacterial activity against Mycobacterium tuberculosis H37Rv assessed as reduction in bacterial growth incubated for 6 days by resazurin reduction microplate assay; type: functional; conditions: 144 h, time 6 day
[14] = Aqueous solubility of the compound incubated for 3 days by shake flask method; type: physicochemical; conditions: water; time 3 day
[15] = system: Mycobacterium tuberculosis; experiment: Antimycobacterial activity against Mycobacterium tuberculosis My 331/88 (H37Rv) assessed as reduction in bacterial growth incubated for 14 days by microdilution method; type: functional; conditions: 336 h, time 14 day
[16] = system: Mycobacterium tuberculosis; experiment: Antimycobacterial activity against Mycobacterium tuberculosis H37Rv ATCC 27294 assessed as reduction in bacterial growth and measured after 21 days by radiometric BACTEC method; type: functional; conditions: H37Rv ATCC 27294, 504 h, time 21 day
[17] = system: Mycobacterium tuberculosis; experiment: Antimycobacterial activity against Mycobacterium tuberculosis H37Rv ATCC 27294 assessed as reduction in bacterial growth; type: functional
[18] = system: Mycobacterium tuberculosis; experiment: Antimycobacterial activity against Mycobacterium tuberculosis H37Rv assessed as reduction in bacterial growth and measured after 7 days by resazurin assay; type: functional, organism-based; conditions: 168 h
[19] = system: Mycobacterium tuberculosis; experiment: Antimycobacterial activity against Mycobacterium tuberculosis kurono assessed as reduction in bacterial colonies incubated for 14 days by colony counting method; type: functional; conditions: 336 h, time 14 day
[20] = system: Mycobacterium tuberculosis; experiment: Antimycobacterial activity against Mycobacterium tuberculosis H37Rv assessed as reduction in bacterial colonies by colony counting method; type: functional
[21] = system: Mycobacterium tuberculosis; experiment: Antimycobacterial activity against Mycobacterium tuberculosis H37Rv ATCC 27294 assessed as reduction in bacterial growth by fluorescence based MABA method; type: functional
[22] = system: Mycobacterium tuberculosis; experiment: Antimycobacterial activity against Mycobacterium tuberculosis H37Rv assessed as reduction in bacterial growth by REMA analysis; type: functional

O=C(NCc1ccc(N2CCN(Cc3ccccc3)CC2)cc1)c1ccc([N+](=O)[O-])o1
MIC [1]: 0.014 µM (≈ 0.00589 µg/mL) | MIC [2]: 0.014 µM (≈ 0.00589 µg/mL)

N#Cc1ccc(Nc2nc(Oc3ncnc4ccccc34)nc(N3CCN(c4cccc(Cl)c4Cl)CC3)n2)cc1C(F)(F)F
MIC [3]: > 9.79 µM | MIC [4]: 9.79 µM (≈ 6.25 µg/mL)

CCn1cc(C(=O)O)c(=O)c2cc(F)c(N3CCN(CN4C(=O)/C(=N\c5ncc(Cc6cc(OC)c(OC)c(OC)c6)c(N)n5)c5cc(Cl)ccc54)C(C)C3)c(F)c21 (stereo not drawn)
MIC [5]: 1.91 µM (≈ 1.56 µg/mL) | MIC [6]: 1.91 µM (≈ 1.56 µg/mL)

CCn1cc(C(=O)O)c(=O)c2cc(F)c(N3CCN(c4nnc(SCC(=O)c5ccc([N+](=O)[O-])cc5)s4)CC3)cc21
MIC [7]: 1.68 µM (≈ 1.01 µg/mL)

O=C(CSc1nnc(N2CCN(c3cc4c(cc3F)c(=O)c(C(=O)O)cn4C3CC3)CC2)s1)c1ccc(Cl)cc1
MIC [7]: 1.67 µM (≈ 1 µg/mL)

O=C(CSc1nnc(N2CCN(c3cc4c(cc3F)c(=O)c(C(=O)O)cn4C3CC3)CC2)s1)c1ccc([N+](=O)[O-])cc1
MIC [7]: 0.82 µM (≈ 0.501 µg/mL)

CCOC(=O)C1=NOC(c2ccc(N3CCN(Cc4ccccc4)CC3)cc2)C1 (stereo not drawn)
MIC90 [7]: 3.96 µM (≈ 1.56 µg/mL)

COc1ccc2cc(C(=O)CN3CCN(c4c(F)cc5c(=O)c(C(=O)O)cn(C6CC6)c5c4OC)CC3)c(=O)oc2c1
MIC [8]: 0.43 µM (≈ 0.248 µg/mL)

O=C(c1ccc2[nH]ccc2c1)N1CCN(C2c3ccccc3-c3ccc([N+](=O)[O-])cc32)CC1 (stereo not drawn)
pIC50 [9]: 6.57

CC(C)(C)c1ccc(S(=O)(=O)N2CCN(c3nc4ccccc4c4ccccc34)CC2)cc1
MIC [10]: 3.39 µM (≈ 1.56 µg/mL)

O=C(c1ccncc1)N1CCN(c2nc3ccccc3c3ccccc23)CC1
MIC [10]: 4.23 µM (≈ 1.56 µg/mL)

Cc1cccc(-c2nc(CN3CCN(c4ccnc5cc(-c6cccnc6)ccc45)CC3)no2)c1C
MIC [11]: 0.52 µM (≈ 0.248 µg/mL)

CON=C1CCC(CN2CCN(c3nc(=O)c4cc(C(F)(F)F)cc([N+](=O)[O-])c4s3)CC2)CC1 (stereo not drawn)
MIC [12]: < 0.03 µM

CCON=C1CCC(CN2CCN(c3nc(=O)c4cc(C(F)(F)F)cc([N+](=O)[O-])c4s3)CC2)CC1 (stereo not drawn)
MIC [12]: < 0.03 µM

O=c1nc(N2CCN(S(=O)(=O)C3CC3)CC2)sc2c([N+](=O)[O-])cc(C(F)(F)F)cc12
MIC [13]: 0.0064 µM (≈ 0.00297 µg/mL) | solubility thermodynamic at 72 h [14]: 15.9 µM (≈ 7.39 µg/mL)

CCCCOC(=O)Nc1ccc(C(O)CN2CCN(c3ccccc3F)CC2)cc1 (stereo not drawn)
MIC [15]: 8 µM (≈ 3.32 µg/mL)

CCOC(=O)N1CCN(CC(=O)C2C(c3ccc(OC)cc3)C(C)C(=O)C(C)C2c2ccc(OC)cc2)CC1 (stereo not drawn)
MIC [16]: 29.8 µM (≈ 16 µg/mL)

COC(=O)COc1ccc2ccccc2c1CN1CCN(C/C=C/c2ccccc2)CC1
MIC [1]: 9.3 µM (≈ 4 µg/mL)

O=C(NCc1ccc(N2CCN(c3ccc(F)cc3F)CC2)cc1)c1ccc([N+](=O)[O-])o1
MIC [12]: < 0.04 µM

COc1cc(N2CCN(c3ccc(N4C[C@H](CNC(C)=O)OC4=O)cc3F)CC2)nc2nccn12
MIC [17]: 1.03 µM (≈ 0.498 µg/mL)

Cc1ccc2nc(-c3ccccc3)c(C(c3ccccc3)N(CC(=O)N3CCN(c4ccccn4)CC3)Cc3ccccc3)cc2c1 (stereo not drawn)
pIC50 [18]: 5.40

Cc1cn2c(C(=O)NCc3ccc(N4CCN(c5ccc(C(F)(F)F)cn5)CC4)c(F)c3)cnc2s1
MIC [10]: 0.004 µM (≈ 0.00207 µg/mL)

CCOC(=O)N1CCN(CC(=O)C2C(c3ccc(Cl)cc3)C(C)C(=O)C(C)C2c2ccc(Cl)cc2)CC1 (stereo not drawn)
MIC [16]: 29.3 µM (≈ 16 µg/mL)

CCOC(=O)N1CCN(CC(=O)C2C(c3ccccc3)C(C)C(=O)C(C)C2c2ccccc2)CC1 (stereo not drawn)
MIC [16]: 33.6 µM (≈ 16 µg/mL)

CCOC(=O)c1ccc(N2CCN(c3nccc(N4CCOc5nc([N+](=O)[O-])cn5C4)n3)CC2)cc1
MIC [5]: > 100 µM

CCOC(=O)N1CCN(CC(=O)C2C(c3ccccc3)CC(=O)C(CC)C2c2ccccc2)CC1 (stereo not drawn)
MIC [16]: 33.6 µM (≈ 16 µg/mL)

CC(C)(c1ccc(OCc2ccc(C(F)(F)F)cc2)cc1)N1CCN(c2ccc(OC[C@H]3CCn4cc([N+](=O)[O-])nc4O3)cc2)CC1
MIC [19]: 0.001 µM (≈ 0.000652 µg/mL)

CCOC(=O)N1CCN(CC(=O)C2C(c3cccc(F)c3)C(C)C(=O)C(C)C2c2cccc(F)c2)CC1 (stereo not drawn)
MIC [16]: 31.2 µM (≈ 16 µg/mL)

O=C(CCCc1cc2ccccc2[nH]1)N1CCN(c2nc3ccccc3c3ccccc23)CC1
MIC [10]: 3.48 µM (≈ 1.56 µg/mL)

CCCCCCCCCN1CCN(c2c(F)cc3c(c2OC)C(C2CC2)=CC(C(=O)O)C3=O)CC1 (stereo not drawn)
MIC [20]: 0.25 µM (≈ 0.122 µg/mL)

COc1ccc(N2CCN(c3ccc(CNC(=O)c4ccc([N+](=O)[O-])o4)cc3)CC2)cc1
MIC [12]: < 0.04 µM

CC(=O)NC[C@H]1CN(c2ccc(N3CCN(c4ccc5nccn5n4)CC3)c(F)c2)C(=O)O1
MIC [17]: 1.1 µM (≈ 0.499 µg/mL)

O=C(NCc1ccc(N2CCN(c3ccc(F)cc3)CC2)cc1)c1ccc([N+](=O)[O-])o1
MIC [12]: < 0.04 µM

CC1COc2c(N3CCNCC3)c(F)cc3c(=O)c(C(=O)O)cn1c23 (stereo not drawn) [DESMETHYL-OFLOXACIN]
MIC [21]: 11.7 µM and 4.55 µM

CC[C@@H](CO)NCCN[C@@H](CC)CO [ETHAMBUTOL]
MIC [15]: 1.1 µM (≈ 0.225 µg/mL)

COc1c(N2CCNC(C)C2)c(F)cc2c(=O)c(C(=O)O)cn(C3CC3)c12 (stereo not drawn) [GATIFLOXACIN]
MIC [8]: 0.66 µM (≈ 0.248 µg/mL)

NNC(=O)c1ccncc1 [ISONIAZID]
MIC [12]: 0.06 µM (≈ 0.00823 µg/mL) | MIC [7]: 10.9 µM (≈ 1.5 µg/mL)

O=c1nc(N2CCN(CC3CCCCC3)CC2)sc2c([N+](=O)[O-])cc(C(F)(F)F)cc12 [MACOZINONE]
MIC [22]: < 0.42 µM | MIC [13]: 0.0004 µM (≈ 0.000183 µg/mL)

CC1COc2c(N3CCN(C)CC3)c(F)cc3c(=O)c(C(=O)O)cn1c23 (stereo not drawn) [OFLOXACIN]
MIC [15]: 1 µM (≈ 0.361 µg/mL)

NC(=O)c1cnccn1 [PYRAZINAMIDE]
MIC [3]: 50.8 µM (≈ 6.25 µg/mL) | MIC [4]: 50.8 µM (≈ 6.25 µg/mL)

CO[C@H]1/C=C/O[C@@]2(C)Oc3c(C)c(O)c4c(O)c(c(/C=N/N5CCN(C)CC5)c(O)c4c3C2=O)NC(=O)/C(C)=C\C=C\[C@H](C)[C@H](O)[C@@H](C)[C@@H](O)[C@@H](C)[C@H](OC(C)=O)[C@@H]1C [RIFAMPIN]
MIC [12]: > 48.6 µM

From ChEMBL document CHEMBL5214886, “An appraisal of anti-mycobacterial activity with structure-activity relationship of piperazine and its analogues: A review” (Eur J Med Chem, 2021)
